# Measurements published in patent US20150225341A1, “PHARMACEUTICALLY ACCEPTABLE SALTS OF THYMODEPRESSIN AND PROCESSES FOR THEIR MANUFACTURE” (APOTEX TECHNOLOGIES INC., priority 2014, published 2015).
# Entries after “also recorded” stand apart in the source; their conditions may differ.
# How the values were obtained:
# Type in all cases: physicochemical
# [1] = Speciation plot calculation of solution pH (FIG. 5, from experimentally determined pKas); settings: according to speciation plot FIG. 5; 0.5 M solution
# Source text: A pharmaceutically acceptable salt of a drug substance is one that is chemically stable and can be used in a pharmaceutical composition. Unlike simple aromatic hydrocarbons, thymodepressin is a dipeptide with multi-functional groups. The dipeptide D-isoglutamyl-D-tryptophan has an alpha amine, two carboxylic acids and an indole nitrogen within the same molecule. An ideal salt should be one that has a solution pH close to about 7 and in the low basic pH range. Through investigations in our laboratory, in the search for a novel salt to address the shortcomings of the disodium salt of D-isoglutamyl-D-tryptophan, the speciation plot (FIG. 5) was used to determine salts with ideal solution pH and solubility that are suitable for pharmaceutical formulations. FIG. 5 is a speciation plot of H-D-iGlu-D-Trp-OH from pH 0 to 12 using experimentally determined pKas. In FIG. 5, LH2=H-D-iGlu-D-Trp-OH, LH=mono carboxylic acid salt, L=dicarboxylic acid salt, and LH3=acid addition salt of H-D-iGlu-D-Trp-OH. The X axis provides the pH of the solution, whereas the Y axis reports the amount of the species present at a particular pH. From our practical experience, we use 6 ml of water per gm of H-D-iGlu-D-Trp-OH for isolation purposes, which corresponds to a concentration of 0.5 M solution.
# According to the speciation plot calculation shown in FIG. 5, the diacid form has a pH of about 2.7 to about 3 in solution. The metal salt of formula I wherein M is potassium or lithium; the divalent salt of formula II wherein B is calcium or magnesium has a solution pH close to about 7.
# We have applied the speciation plot (FIG. 5) to compute the pH range of the salt forms of the dipeptide H-D-iGlu-D-Trp-OH. […] This is particular ideal for liquid formulation, sublingual tablets, nasal drops and sprays.
# [2] = Percent crystallinity by X-ray powder diffraction
# Source text: The overall crystallinity measured by means of the XRPD technique provides additional helpful information for pharmaceutical materials that contain some amorphous material formed during synthetic procedure. It is also a valuable measure for control of long-term changes in the crystalline materials. Although not related to any structural and compositional features, the measured “percent crystallinity” may be a good indicator for the stability of a particular material as a function of time.
# The percent crystallinity is commonly measured as a ratio between the diffraction portion from the crystalline part of the sample, IC, and the total diffraction from the same sample, IC+B. The values of CC can be obtained after an appropriate subtraction of the scattering portion from the background, IB.
# For such kind of analyses, the diffraction is measured as total area under the profile of: • the whole pattern as it is collected (one may correct for the air scattering)—ITOTAL. • the peaks only (IC) after subtraction of the background (correction for the air scattering), • the background only with correction for air scattering—(IB).
# However, in this study, due to the technical problems with the D5000 point-detector diffraction system, all the samples were analyzed on a D8 system, equipped with an area, 2D detector, and the above-mentioned approach could not be applied. Therefore, another technique has been developed for measuring the crystallinity of samples analyzed on such system. Only a narrow part of the 2D diffraction image is chosen with a single peak at the centre and a neighbour area where the background will be measured.
# All samples were measured for calculation of their crystallinity using a narrow range of 21°-25° with a strongest reflection at […]. The background was subtracted as linear, and an empirical correlation coefficient of 2.5 was applied.
# [3] = Hygroscopicity of the solid salt in air (laboratory observation); settings: solid (freeze-dried / amorphous) salt
Substance,pH in solution [1],further results
lithium salt of D-isoglutamyl-D-tryptophan (1:1) [Example 3A],about 7,–
potassium salt of D-isoglutamyl-D-tryptophan (1:1) [Example 1],about 7,–
magnesium salt of D-isoglutamyl-D-tryptophan (1:2) [Example 5],about 7,–
calcium salt of D-isoglutamyl-D-tryptophan (1:2) [Example 7],about 7,"% crystallinity ([2]; XRPD, D8 system with 2D detector, not absolute values, listed as Example 8): 18-20%; % crystallinity ([2]; XRPD, D8 system with 2D detector, not absolute values, listed as H-D-iGlu-D-Trp-OH calcium (2:1)): less than 67%; % crystallinity ([2]; XRPD, D8 system with 2D detector; not absolute values; listed as calcium salt of thymodepressin [1:2)): ≤ 67%"
disodium salt of D-isoglutamyl-D-tryptophan,above 9.0,hygroscopicity of the solid [3]: extremely hygroscopic turning into a gel in a matter of minutes in air; also recorded: hygroscopic and very difficult to handle; hygroscopicity of the solid ([3]; listed as disodium salt): extremely hygroscopic and very difficult to weigh
